Like-named read-outs stand apart in the source and are kept apart here. Blank lines part the entries; values can stand above or below the compound they belong to.
Legend:
[1] = test system: CEM cells; test: Cytostatic assay, CEM; type: cell-based; conditions: Homo sapiens, CCRF-CEM
How it was run: (§1)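 Each cell line grows in the presence of compound for 48 h to 96 h, the duration chosen per line, at 37° C in a humid CO2-regulated incubator. Seeding is 5-7.5×10^4 cells per well, and final counts come from a Coulter counter.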

[2] = test system: Molt4/C8 cells; test: Cytostatic assay, Molt4/C8; type: cell-based; conditions: Table 2
How it was run: as §1

[3] = test system: Sup T1 cells; test: Cytostatic assay, Sup T1; type: cell-based; conditions: Homo sapiens, Table 2, read-out: Cytostatic activity (μM) Sup T 1
How it was run: as §1

[4] = test system: MT-2 cells; test: Cytostatic assay, MT-2; type: cell-based; conditions: Homo sapiens, MT2; Table 2
How it was run: as §1

[5] = test system: C8166 cells; test: Cytostatic assay, C8166; type: cell-based; conditions: Homo sapiens, Table 2
How it was run: as §1

[6] = test system: HUT-78 cells; test: Cytostatic assay, HUT-78; type: cell-based; conditions: Homo sapiens, HuT78; Table 2
How it was run: as §1

[7] = test system: MT-4 cells; test: Cytostatic assay, MT-4; type: cell-based; conditions: Homo sapiens, MT4; Table 2
How it was run: as §1

[8] = test system: HL60, human leukemia cells; test: Cytostatic assay, HL-60; type: cell-based; conditions: Table 2
How it was run: as §1

[9] = test system: U937, human monocytic cells; test: Cytostatic assay, U937; type: cell-based; conditions: U-937, Table 2
How it was run: as §1

[10] = test system: THP-1, human monocytic cells; test: Cytostatic assay, THP-1; type: cell-based; conditions: Table 2
How it was run: as §1

[11] = test system: Raji, human B-lymphoma cells; test: Cytostatic assay, Raji; type: cell-based; conditions: Table 2
How it was run: as §1

[12] = test system: Daudi, human B-lymphoma cells; test: Cytostatic assay, Daudi; type: cell-based; conditions: Table 2
Protocol: (§2) To each well of a 96-well microtiter plate were added 5-7.5×10^4 cells and a given amount of the test compound. The cells were allowed to proliferate for 48 h to 96 h (depending on the nature of the cell line) at 37° C. in a humidified CO2-controlled atmosphere. At the end of the incubation period, the cells were counted in a Coulter Counter (Coulter Electronics Ltd, Harpenden Herts, United Kingdom).

[13] = test system: L1210 cells; test: Cytostatic assay, L1210; type: cell-based; conditions: Mus musculus, Table 2
How it was run: as §1

[14] = test system: HOS CD4+ osteosarcoma cells; test: Cytostatic assay, HOS CD4+; type: cell-based; conditions: Homo sapiens; Table 3
Protocol: as §2

[15] = test system: OST TK- osteosarcoma cells; test: Cytostatic assay, OST TK-; type: cell-based; conditions: Homo sapiens; Table 3
How it was run: as §1

[16] = test system: MCF-7 mammary carcinoma cells; test: Cytostatic assay, MCF-7; type: cell-based; conditions: Homo sapiens, MCF7; Table 3
How it was run: as §1

[17] = test system: FM3A mammary carcinoma cells; test: Cytostatic assay, FM3A; type: cell-based, murine; conditions: Mus musculus, Table 3
How it was run: as §1

[18] = test system: HeLa cervix carcinoma cells; test: Cytostatic assay, HeLa; type: cell-based, human; conditions: Homo sapiens; Table 3; read-out: Cytostatic activity (μM) Hela
How it was run: as §1

[19] = test system: Caki-1 kidney carcinoma cells; test: Cytostatic assay, Caki-1; type: cell-based; conditions: Homo sapiens, Table 3
How it was run: as §1

[20] = test system: Caki-2 kidney carcinoma cells; test: Cytostatic assay, Caki-2; type: cell-based; conditions: Homo sapiens, Table 3
How it was run: as §1

[21] = test system: 293T embryonic kidney cells; test: Cytostatic assay, 293T; type: cell-based; conditions: Homo sapiens, HEK-293T; Table 3
How it was run: as §1

[22] = test system: HT29 colorectal carcinoma cells; test: Cytostatic assay, HT29; type: cell-based; conditions: Homo sapiens, HT-29; Table 3
How it was run: as §1

[23] = test system: U87 glioma cells; test: Cytostatic assay, U87; type: cell-based; conditions: Homo sapiens, U-87 MG; Table 3
How it was run: as §1

[24] = test system: U87 CD4+/CXCR4+/CCR5+ glioma cells; test: Cytostatic assay, U87 CD4+/CXCR4+/CCR5+; type: cell-based; conditions: Homo sapiens, Glioma cell; Table 3
Protocol: as §2

[25] = test system: HEL embryonic lung fibroblast cells; test: Cytostatic assay, HEL; type: cell-based; conditions: Homo sapiens, Table 3
How it was run: as §1

[26] = test system: BAEC aortic endothelial cells; test: Cytostatic assay, BAEC; type: cell-based, bovine; conditions: Bos taurus, Table 3
How it was run: as §1

[27] = test system: PC3 (rega) prostate cancer cells; test: Cytostatic assay, PC3 (rega); type: cell-based; conditions: Table 4
How it was run: as §1

[28] = test system: BPH-1 (UZ); test: Cytostatic assay, BPH-1 (UZ); type: cell-based; conditions: Homo sapiens, Table 4
How it was run: as §1

[29] = test system: DU145 (UZ) prostate cancer cells; test: Cytostatic assay, DU145 (UZ); type: cell-based; conditions: Homo sapiens, DU-145; Table 4
How it was run: as §1

[30] = test system: PC-3 (UZ) prostate cancer cells; test: Cytostatic assay, PC-3 (UZ); type: cell-based; conditions: Table 4
How it was run: as §1

[31] = test system: LNCaP (UZ) prostate cancer cells; test: Cytostatic assay, LNCaP (UZ); type: cell-based; conditions: Homo sapiens, Table 4
How it was run: as §1

[32] = test system: PNT1A (UZ) prostate cells; test: Cytostatic assay, PNT1A (UZ); type: cell-based; conditions: Homo sapiens, Table 4
How it was run: as §1

[33] = test system: 22Rv1 (UZ) prostate cancer cells; test: Cytostatic assay, 22Rv1 (UZ); type: cell-based; conditions: Homo sapiens, Table 4
How it was run: as §1

[34] = test system: PLC/PRF/5 hepatoma cells; test: Cytostatic assay, PLC/PRF/5; type: cell-based; conditions: Homo sapiens, Table 4
How it was run: as §1

[35] = test system: HepG2C3A hepatoma cells; test: Cytostatic assay, HepG2C3A; type: cell-based; conditions: Homo sapiens, HepG2/C3A; Table 4
How it was run: as §1

[36] = test system: Huh-7 hepatoma cells; test: Cytostatic assay, Huh-7; type: cell-based; conditions: Homo sapiens, Table 4
How it was run: as §1

[37] = test system: DNA synthesis in CEM cells; test: Antimetabolic activity assay, [CH3-3H]dThd incorporation (DNA synthesis), CEM; type: cell-based; conditions: Homo sapiens, CCRF-CEM, incorporation into TCA-insoluble material
Protocol: (§3) Radiolabeled precursors of DNA synthesis ([^3H-methyl]dThd), RNA synthesis ([5-^3H]Urd), and protein synthesis ([4,5-^3H]leu) were added to 10^5 CEM cell cultures in the 200 μl-wells of a microtiter plate at 1 μCi for each precursor in the presence of varying concentrations of the test compounds (5-fold dilution series). The cells were allowed to proliferate for 20 hrs at 37° C. in a humidified, CO2-controlled atmosphere. At the end of the incubation period, the contents of the wells were brought onto 25-mm glass fiber filters and further processed for measurement of acid-insoluble radioactivity.

[38] = test system: DNA synthesis in Raji cells; test: Antimetabolic activity assay, [CH3-3H]dThd incorporation (DNA synthesis), Raji; type: cell-based; conditions: Homo sapiens, incorporation into TCA-insoluble material
Protocol: [The procedure below names another cell line; the source lists this cell line under the same test.] as §3

[39] = test system: RNA synthesis in CEM cells; test: Antimetabolic activity assay, [5-3H]uridine incorporation (RNA synthesis), CEM; type: cell-based; conditions: Homo sapiens, CCRF-CEM, incorporation into TCA-insoluble material
Protocol: as §3

[40] = test system: RNA synthesis in Raji cells; test: Antimetabolic activity assay, [5-3H]uridine incorporation (RNA synthesis), Raji; type: cell-based; conditions: Homo sapiens, incorporation into TCA-insoluble material
Protocol: [The procedure below names another cell line; the source lists this cell line under the same test.] as §3

[41] = test system: protein synthesis in CEM cells; test: Antimetabolic activity assay, [4,5-3H]leucine incorporation (protein synthesis), CEM; type: cell-based; conditions: Homo sapiens, CCRF-CEM, incorporation into TCA-insoluble material
Protocol: as §3

[42] = test system: protein synthesis in Raji cells; test: Antimetabolic activity assay, [4,5-3H]leucine incorporation (protein synthesis), Raji; type: cell-based; conditions: Homo sapiens, incorporation into TCA-insoluble material
Protocol: [The procedure below names another cell line; the source lists this cell line under the same test.] as §3

[43] = test system: broad variety of tumor cell lines; test: Cytostatic assays, summary over the panel of cell lines (Tables 2-4); type: cell-based
Protocol: as §2

[44] = Table 1a, read-out: IC50 μM (CEM)
[45] = Table 2, read-out: Cytostatic activity (μM) CEM
[46] = Homo sapiens, HuT78, range for the seven compounds, MT-4 and HUT-78 cells, read-out: IC50 range, cytostatic activity against MT-4 and HUT-78 cells
[47] = range for the seven compounds against the 5 tumor cell lines, read-out: IC50 range, cytostatic activity against CEM, Molt4/C8, Sup T1, MT-2 and C8166 cells

- IC50 [1, 44]: 1.7 µM
- IC50 [1, 45]: 1.7 ± 1.1 µM
- IC50 [2]: 0.56 ± 0.57 µM
- IC50 [3]: 1.3 ± 0.21 µM
- IC50 [4]: 0.57 ± 0.078 µM
- IC50 [5]: 2.2 ± 0.35 µM
- IC50 [6]: 38 ± 8.5 µM
- IC50 [8]: 6.1 ± 8.6 µM
- IC50 [9]: 42 ± 3.5 µM
- IC50 [10]: 41 ± 2.8 µM
- IC50 [11]: 46 ± 1.4 µM
- IC50 [12]: 37 ± 3.5 µM
- IC50 [13]: 41 ± 2 µM
- IC50 [14]: 50 ± 12 µM
- IC50 [15]: 8.2 ± 6.9 µM
- IC50 [16]: 25 ± 11 µM
- IC50 [17]: 50 ± 2.8 µM
- IC50 [18]: 36 ± 7 µM
- IC50 [19]: 2.3 ± 0.14 µM
- IC50 [20]: 45 ± 7.1 µM
- IC50 [22]: 30 ± 5.7 µM
- IC50 [23]: 51 ± 2.1 µM
- IC50 [24]: 51 ± 4.9 µM
- IC50 [26]: 27 ± 7.1 µM
- IC50 [27]: 0.25 ± 0.27 µM
- IC50 [28]: 46 ± 4.9 µM
- IC50 [29]: 15 ± 8.5 µM
- IC50 [30]: 0.6 ± 0.071 µM
- IC50 [31]: 0.38 ± 0.1 µM
- IC50 [32]: 40 ± 7.1 µM
- IC50 [33]: 22 ± 9.2 µM
- IC50 [34]: 28 ± 2.8 µM
- IC50 [35]: 8.1 ± 0.71 µM
- IC50 [36]: 1.3 ± 0.28 µM
- IC50 [37]: 3.2 ± 1.2 µM
- IC50 [38]: 39 ± 33 µM
- IC50 [39]: 1.9 ± 0.7 µM
- IC50 [40]: 27 ± 14 µM
- IC50 [41]: 0.66 ± 0.13 µM
- IC50 [42]: 43 ± 7 µM
- IC50 [43, 46]: 8.5 to 60 µM
- IC50 [43, 47]: 0.22 to 3.4 µM
SMILES: COC(=O)c1cc(CCc2ccsc2)sc1N [TR595, 2-Amino-5-(2-thiophen-3-yl-ethyl)-thiophene-3-carboxylic acid methyl ester]
- IC50 [7]: 30 ± 4.9 µM
- IC50 [21]: 44 ± 5.7 µM
- IC50 [25]: 30 ± 13 µM

- IC50 [1, 44]: 1.5 µM
- IC50 [1, 45]: 1.5 ± 1.3 µM
- IC50 [2]: 1.2 ± 0.6 µM
- IC50 [3]: 1.1 ± 0.73 µM
- IC50 [4]: 0.79 ± 0.092 µM
- IC50 [5]: 2.2 µM
- IC50 [6]: 36 ± 13 µM
- IC50 [8]: 5.7 ± 7.2 µM
- IC50 [9]: 46 ± 7.1 µM
- IC50 [10]: 38 ± 6.4 µM
- IC50 [11]: 50 ± 3.5 µM
- IC50 [12]: 38 ± 2.1 µM
- IC50 [13]: 25 µM
- IC50 [14]: 48 ± 1.4 µM
- IC50 [15]: 9.8 ± 7.4 µM
- IC50 [16]: 36 ± 9.2 µM
- IC50 [17]: 67 ± 18 µM
- IC50 [18]: 38 ± 2.8 µM
- IC50 [19]: 6.5 ± 3.5 µM
- IC50 [20]: 43 ± 4.2 µM
- IC50 [22]: 41 ± 2.8 µM
- IC50 [23]: 50 ± 3.5 µM
- IC50 [24]: 73 ± 3.5 µM
- IC50 [26]: 26 ± 4.2 µM
- IC50 [27]: 0.24 ± 0.19 µM
- IC50 [28]: 52 ± 1.4 µM
- IC50 [29]: 5.4 ± 0.96 µM
- IC50 [30]: 0.51 ± 0.064 µM
- IC50 [31]: 0.35 ± 0.014 µM
- IC50 [32]: 39 ± 3.5 µM
- IC50 [33]: 9.1 ± 0.35 µM
- IC50 [34]: 44 ± 2.1 µM
- IC50 [35]: 10 ± 5.2 µM
- IC50 [36]: 1.7 ± 0.21 µM
- IC50 [37]: 3.1 ± 1 µM
- IC50 [38]: ≥ 100 µM
- IC50 [39]: 0.96 ± 0.37 µM
- IC50 [40]: > 100 µM
- IC50 [41]: 0.61 ± 0.04 µM
- IC50 [42]: 84 ± 6 µM
- IC50 [43, 46]: 8.5 to 60 µM
- IC50 [43, 47]: 0.22 to 3.4 µM
SMILES: COC(=O)c1cc(CCc2ccccc2)sc1N [TR575, 2-Amino-5-phenethyl-thiophene-3-carboxylic acid methyl ester]
- IC50 [7]: 27 ± 0.71 µM
- IC50 [21]: 45 ± 16 µM
- IC50 [25]: 38 ± 12 µM

Reference: patent US9278958B2, “Anti-cancer compounds” (KATHOLIEKE UNIVERSITEIT LEUVEN, priority 2012, dated 2016)
